According to ChEMBL document CHEMBL5518240 (J Med Chem, 2024):

How the values were obtained:
[1] = molecular target: T1, Protein cereblon/Histone acetyltransferase p300 (Homo sapiens, UniProt Q09472+Q96SW2); test: PROTAC activity at p300/CRBN in AR positive human VCaP cells assessed as maximal protein degradation at 12.3 nM incubated for 4 hrs by Western blot analysis relative to control; type: cell-based
Target sequence in this assay (Q09472 2-2414 limits assumed): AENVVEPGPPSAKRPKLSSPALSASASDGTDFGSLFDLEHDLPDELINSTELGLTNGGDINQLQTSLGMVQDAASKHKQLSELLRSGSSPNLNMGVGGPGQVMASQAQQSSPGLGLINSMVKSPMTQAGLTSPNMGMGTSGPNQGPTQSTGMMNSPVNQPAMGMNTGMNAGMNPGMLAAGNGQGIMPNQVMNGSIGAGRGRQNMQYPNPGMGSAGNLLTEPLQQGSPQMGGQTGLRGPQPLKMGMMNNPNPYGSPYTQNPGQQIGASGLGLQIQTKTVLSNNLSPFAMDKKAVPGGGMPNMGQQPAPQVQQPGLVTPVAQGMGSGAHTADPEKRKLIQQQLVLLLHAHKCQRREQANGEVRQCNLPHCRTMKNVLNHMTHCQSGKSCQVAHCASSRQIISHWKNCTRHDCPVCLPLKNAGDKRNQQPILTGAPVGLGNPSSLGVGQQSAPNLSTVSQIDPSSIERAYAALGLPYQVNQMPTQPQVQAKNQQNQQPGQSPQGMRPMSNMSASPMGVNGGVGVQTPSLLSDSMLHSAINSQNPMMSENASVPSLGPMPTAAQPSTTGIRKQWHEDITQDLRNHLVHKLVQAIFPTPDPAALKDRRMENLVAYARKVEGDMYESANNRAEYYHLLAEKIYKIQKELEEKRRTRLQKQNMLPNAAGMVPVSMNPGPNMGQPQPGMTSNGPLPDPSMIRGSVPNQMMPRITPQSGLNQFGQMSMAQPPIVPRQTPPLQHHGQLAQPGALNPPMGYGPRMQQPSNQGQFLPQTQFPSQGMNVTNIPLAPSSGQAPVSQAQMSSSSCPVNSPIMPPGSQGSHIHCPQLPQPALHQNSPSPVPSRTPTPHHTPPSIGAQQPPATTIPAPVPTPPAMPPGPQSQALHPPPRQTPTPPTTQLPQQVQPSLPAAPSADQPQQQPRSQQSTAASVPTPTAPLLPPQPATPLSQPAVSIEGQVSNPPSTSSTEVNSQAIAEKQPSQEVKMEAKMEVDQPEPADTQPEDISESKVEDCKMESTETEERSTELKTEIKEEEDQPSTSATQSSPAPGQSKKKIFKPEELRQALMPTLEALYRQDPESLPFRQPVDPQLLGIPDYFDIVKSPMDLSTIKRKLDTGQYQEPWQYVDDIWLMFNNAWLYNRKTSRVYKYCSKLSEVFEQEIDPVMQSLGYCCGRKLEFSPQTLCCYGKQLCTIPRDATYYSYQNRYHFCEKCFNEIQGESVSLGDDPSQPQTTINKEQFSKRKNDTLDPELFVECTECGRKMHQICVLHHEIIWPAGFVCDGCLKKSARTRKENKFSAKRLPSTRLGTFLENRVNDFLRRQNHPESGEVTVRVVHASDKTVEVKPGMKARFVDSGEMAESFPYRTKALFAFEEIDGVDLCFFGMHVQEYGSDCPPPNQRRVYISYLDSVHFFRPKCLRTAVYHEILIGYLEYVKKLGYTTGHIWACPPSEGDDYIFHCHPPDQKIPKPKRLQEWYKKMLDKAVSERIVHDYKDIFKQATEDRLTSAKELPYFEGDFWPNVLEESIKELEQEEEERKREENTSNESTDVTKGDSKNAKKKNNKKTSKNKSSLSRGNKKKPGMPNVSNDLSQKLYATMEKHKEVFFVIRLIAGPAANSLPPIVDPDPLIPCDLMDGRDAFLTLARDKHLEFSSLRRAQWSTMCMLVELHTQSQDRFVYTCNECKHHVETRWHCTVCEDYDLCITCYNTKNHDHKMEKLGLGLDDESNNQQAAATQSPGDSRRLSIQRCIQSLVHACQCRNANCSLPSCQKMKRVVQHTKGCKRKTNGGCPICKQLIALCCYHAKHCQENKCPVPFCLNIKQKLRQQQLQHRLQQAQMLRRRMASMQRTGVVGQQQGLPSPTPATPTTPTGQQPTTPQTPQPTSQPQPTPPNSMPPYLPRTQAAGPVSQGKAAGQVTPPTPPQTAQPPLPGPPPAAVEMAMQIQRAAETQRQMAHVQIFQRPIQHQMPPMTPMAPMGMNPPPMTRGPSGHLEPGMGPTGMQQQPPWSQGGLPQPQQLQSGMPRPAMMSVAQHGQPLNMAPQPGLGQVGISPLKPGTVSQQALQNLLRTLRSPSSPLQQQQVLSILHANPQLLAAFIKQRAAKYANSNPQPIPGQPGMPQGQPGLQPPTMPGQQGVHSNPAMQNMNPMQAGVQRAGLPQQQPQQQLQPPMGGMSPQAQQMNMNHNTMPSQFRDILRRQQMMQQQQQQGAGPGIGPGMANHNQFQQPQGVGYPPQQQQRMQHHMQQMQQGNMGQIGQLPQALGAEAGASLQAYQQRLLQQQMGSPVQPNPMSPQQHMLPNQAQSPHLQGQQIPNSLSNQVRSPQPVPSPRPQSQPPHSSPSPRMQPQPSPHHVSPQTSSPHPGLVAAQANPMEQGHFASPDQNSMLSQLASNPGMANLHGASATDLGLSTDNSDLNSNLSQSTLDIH
Target sequence in this assay (Q96SW2 whole entry partner): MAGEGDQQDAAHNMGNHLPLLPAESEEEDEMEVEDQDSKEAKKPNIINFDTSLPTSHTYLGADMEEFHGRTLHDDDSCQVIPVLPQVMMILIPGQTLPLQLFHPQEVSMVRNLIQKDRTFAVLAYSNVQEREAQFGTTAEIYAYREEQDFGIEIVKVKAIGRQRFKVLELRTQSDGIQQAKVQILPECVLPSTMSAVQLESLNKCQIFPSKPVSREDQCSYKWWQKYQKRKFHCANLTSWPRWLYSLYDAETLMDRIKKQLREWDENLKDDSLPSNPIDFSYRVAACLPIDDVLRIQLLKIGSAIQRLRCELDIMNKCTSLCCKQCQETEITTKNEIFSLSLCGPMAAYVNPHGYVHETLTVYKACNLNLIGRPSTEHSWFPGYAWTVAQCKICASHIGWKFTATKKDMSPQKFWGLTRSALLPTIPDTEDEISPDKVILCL

VCaP [2] = test: Reduction in c-Myc gene expression in AR positive human VCaP cells assessed as reduction in mRNA level measured after 6 hrs by qRT-PCT analysis relative to control; type: functional, cell-based; conditions: dose 0.1-1000 nM
[3] = molecular target: T2, Protein cereblon/CREB-binding protein (Homo sapiens, UniProt Q92793+Q96SW2); test: PROTAC activity at CBP/CRBN in human LNCaP cells assessed as maximal protein degradation at 1 uM incubated for 4 hrs by Western blot analysis relative to control; type: cell-based
LNCaP [4] = test: Reduction in c-Myc gene expression in AR positive human LNCaP cells assessed as reduction in mRNA level measured after 6 hrs by qRT-PCT analysis relative to control; type: functional, cell-based; conditions: dose 0.1-1000 nM
[5] = Reduction in AR gene expression in AR positive human VCaP cells assessed as reduction in mRNA level at 1 nM measured after 6 hrs by qRT-PCT analysis relative to control; type: functional
[6] = molecular target: T2, Protein cereblon/CREB-binding protein; test: PROTAC activity at CBP/CRBN in AR positive human VCaP cells assessed as maximal protein degradation at 1.4 nM incubated for 4 hrs by Western blot analysis relative to control; type: cell-based
[7] = molecular target: T2, Protein cereblon/CREB-binding protein; test: PROTAC activity at CBP/CRBN in human 22Rv1 cells assessed as maximal protein degradation at 1 uM incubated for 4 hrs by Western blot analysis relative to control; type: cell-based
[8] = Reduction in AR gene expression in AR positive human 22Rv1 cells assessed as reduction in mRNA level at 10 nM measured after 6 hrs by qRT-PCT analysis relative to control; type: functional, CWR22R
[9] = molecular target: T2, Protein cereblon/CREB-binding protein; test: PROTAC activity at CBP/CRBN in AR positive human VCaP cells assessed as maximal protein degradation at 111.1 nM incubated for 4 hrs by Western blot analysis relative to control; type: cell-based
[10] = Drug exposure in CB17 SCID mouse xenografted with human VCaP cells assessed compound concentration in tumor at 1 mg/kg, po measured after 3 hrs by LC-MS/MS analysis; type: ADME, organism-based, Neoplasm; conditions: read-out: Drug uptake
[11] = molecular target: T1, Protein cereblon/Histone acetyltransferase p300; test: PROTAC activity at p300/CRBN in AR positive human VCaP cells assessed as maximal protein degradation at 1000 nM incubated for 4 hrs by Western blot analysis relative to control; type: cell-based
Target sequence in this assay (Q09472 2-2414 limits assumed): as the sequence (Q09472 2-2414 limits assumed) above
Target sequence in this assay (Q96SW2 whole entry partner): as the sequence (Q96SW2 whole entry partner) above

[12] = Volume of distribution at steady state in male ICR mouse at 1 mg/kg, iv measured upto 24 hrs by LC-MS/MS analysis; type: ADME, organism-based; conditions: in vivo, read-out: Vdss
[13] = molecular target: T1, Protein cereblon/Histone acetyltransferase p300; test: PROTAC activity at p300/CRBN in AR positive human VCaP cells assessed as maximal protein degradation at 1.4 nM incubated for 4 hrs by Western blot analysis relative to control; type: cell-based
Target sequence in this assay (Q09472 2-2414 limits assumed): as the sequence (Q09472 2-2414 limits assumed) above
Target sequence in this assay (Q96SW2 whole entry partner): as the sequence (Q96SW2 whole entry partner) above

LNCaP [14] = test: Potency index, ratio of GNE-049 IC50 to test compound IC50 for antiproliferative activity against AR positive human LNCaP cells assessed inhibition of cell growth measured after 4 days by CellTiter-Glo Luminescent cell viability assay; type: functional; conditions: time 4 day
[15] = molecular target: T1, Protein cereblon/Histone acetyltransferase p300; test: PROTAC activity at p300/CRBN in AR positive human VCaP cells assessed as maximal protein degradation at 37 nM incubated for 4 hrs by Western blot analysis relative to control; type: cell-based
Target sequence in this assay (Q09472 2-2414 limits assumed): as the sequence (Q09472 2-2414 limits assumed) above
Target sequence in this assay (Q96SW2 whole entry partner): as the sequence (Q96SW2 whole entry partner) above

CWR22R [16] = test: Reduction in c-Myc gene expression in AR positive human 22Rv1 cells assessed as reduction in mRNA level measured after 6 hrs by qRT-PCT analysis relative to control; type: functional, cell-based; conditions: dose 0.1-1000 nM
[17] = Half life in male ICR mouse at 1 mg/kg, iv measured upto 24 hrs by LC-MS/MS analysis; type: ADME, organism-based; conditions: in vivo
[18] = molecular target: T2, Protein cereblon/CREB-binding protein; test: In vivo PROTAC activity at p300/CRBN in human VCaP cells xenografted in CB17 SCID mouse assessed as reduction in CBP protein at 3 mg/kg, po measured after 3 hrs; type: functional, organism-based; parameters: scale not given: the % may be the effect or the level left
LNCaP [19] = test: Potency index, ratio of ARV-110 IC50 to test compound IC50 for antiproliferative activity against AR positive human LNCaP cells assessed inhibition of cell growth measured after 4 days by CellTiter-Glo Luminescent cell viability assay; type: functional; conditions: time 4 day
[20] = molecular target: T2, Protein cereblon/CREB-binding protein; test: PROTAC activity at CBP/CRBN in human VCaP cells assessed as protein degradation incubated for 4 hrs by Western blot analysis; type: cell-based
CWR22R [21] = test: Antiproliferative activity against AR positive human 22Rv1 cells assessed inhibition of cell growth measured after 4 days by CellTiter-Glo Luminescent cell viability assay; type: functional, cell-based; conditions: 22Rv1, 96 h
[22] = molecular target: T2, Protein cereblon/CREB-binding protein; test: PROTAC activity at CBP/CRBN in human VCaP cells assessed as maximal protein degradation at 1 uM incubated for 4 hrs by Western blot analysis relative to control; type: cell-based
[23] = molecular target: T2, Protein cereblon/CREB-binding protein; test: PROTAC activity at CBP/CRBN in human LNCaP cells assessed as protein degradation incubated for 4 hrs by Western blot analysis; type: cell-based
[24] = Drug exposure in CB17 SCID mouse xenografted with human VCaP cells assessed compound concentration in tumor at 3 mg/kg, po measured after 24 hrs by LC-MS/MS analysis; type: ADME, organism-based, Neoplasm; conditions: in vivo, BLD = below limit of detection
[25] = Plasma concentration in CB17 SCID mouse xenografted with human VCaP cells at 3 mg/kg, po measured after 24 hrs by LC-MS/MS analysis; type: ADME, organism-based
[26] = molecular target: T2, Protein cereblon/CREB-binding protein; test: PROTAC activity at CBP/CRBN in AR positive human VCaP cells assessed as maximal protein degradation at 0.46 nM incubated for 4 hrs by Western blot analysis relative to control; type: cell-based
[27] = Reduction in KLK3 gene expression in AR positive human 22Rv1 cells assessed as reduction in mRNA level at 10 nM measured after 6 hrs by qRT-PCT analysis relative to control; type: functional, CWR22R
[28] = Drug exposure in CB17 SCID mouse xenografted with human VCaP cells assessed compound concentration in tumor at 1 mg/kg, po measured after 24 hrs by LC-MS/MS analysis; type: ADME, organism-based, Neoplasm; conditions: in vivo, BLD = below limit of detection
[29] = molecular target: T2, Protein cereblon/CREB-binding protein; test: In vivo PROTAC activity at p300/CRBN in human VCaP cells xenografted in CB17 SCID mouse assessed as reduction in CBP protein at 1 mg/kg, po measured after 24 hrs; type: functional, organism-based; parameters: scale not given: the % may be the effect or the level left
CWR22R [30] = test: Potency index, ratio of GNE-049 IC50 to test compound IC50 for antiproliferative activity against AR positive human 22Rv1 cells assessed inhibition of cell growth measured after 4 days by CellTiter-Glo Luminescent cell viability assay; type: functional; conditions: time 4 day
[31] = molecular target: T2, Protein cereblon/CREB-binding protein; test: In vivo PROTAC activity at CBP/CRBN in human VCaP cells xenografted in SCID mouse assessed as reduction in CBP protein at 1 mg/kg, po measured after 3 hrs; type: functional, organism-based; parameters: scale not given: the % may be the effect or the level left
[32] = molecular target: T1, Protein cereblon/Histone acetyltransferase p300; test: PROTAC activity at p300/CRBN in human 22Rv1 cells assessed as protein degradation incubated for 4 hrs by Western blot analysis; type: cell-based
VCaP [33] = test: Antiproliferative activity against AR positive human VCaP cells assessed inhibition of cell growth measured after 4 days by CellTiter-Glo Luminescent cell viability assay; type: functional, cell-based; conditions: 96 h

With `CC(=O)N1CCc2c(c(N3CCCc4cc(-c5cnn(C)c5)c(C(F)F)cc43)nn2[C@H]2CC[C@H](CN3CCN(c4ccc5c(c4)C(=O)N(C4CCC(=O)NC4=O)C5=O)CC3)CC2)C1` (stereo partly drawn) the Activity [1] was 100%, the inhibition (VCaP [2]) was “Dose-Dependent Effect” and the Emax [3] was 90%. The inhibition (LNCaP [4]) was “Dose-Dependent Effect”, the inhibition at 0.001 µM [5] was 77% and the Activity [6] was 91%. For the same compound, the Emax [7] was 93%, the inhibition at 0.01 µM [8] was 43% and the Activity [9] was 94%. The concentration at 3 h [10] was 30 ng/mL, the Activity [11] was 75% and the Vd [12] was 0.4 L/kg. For the same compound, the Activity [13] was 97%, the “Ratio IC50” value (LNCaP [14]) was 100 and the Activity [15] was 100%. For the same compound, the inhibition (CWR22R [16]) was “Dose-Dependent Effect”, the half-life [17] was 2.8 h and the Activity [18] was greater than 95%. The “Ratio IC50” value (LNCaP [19]) was greater than 50, the DC50 [20] was 0.3 nM and the IC50 (CWR22R [21]) was 1.2 nM. For the same compound, the Emax [22] was greater than 95%, the DC50 [23] was 0.3 nM and the Drug uptake [24] was “Bld”. For the same compound, the concentration at 24 h [25] was 21 ng/mL, the Activity [26] was 76% and the inhibition at 0.01 µM [27] was 75%. For the same compound, the Drug uptake [28] was “Bld”, the Activity [29] was greater than 95% and the “Ratio IC50” value (CWR22R [30]) was 100. It also gave an Activity [31] greater than 95%, a DC50 [32] of 0.4 nM and an IC50 (VCaP [33]) of 2 nM.
